Entries after “also recorded” stand apart in the source; their conditions may differ.
Tests used:
[1] = Patient case records: body weight during co-administration of an anticholinesterase agent and an antidepressant; type: in vivo, human; parameters: Weight / Wt. Chg. / Δ Wt.: unit not given here; conditions: for Wt. Chg.: positive = loss
Description: The following examples illustrate exemplified treatment regimens and resultant synergistic effects in achieving long-term stable weight loss by co-administering to an individual an anticholinesterase agent and an antidepressant. Each patient is given an alphanumeric designator.

[2] = test system: P450 cytochrome; conditions: cited from earlier work
[3] = doses over 300 mg a day; cited from earlier work
[4] = in vivo; cited from earlier work
[5] = Patient B3, comments wrap over rows: 'Epigastric discomfort, no vomiting.' (day 70), 'Bowels a little loose' (day 126), 'Vomiting after rivastigmine at supper' (day 175), 'Diethylpropion made them vomit twice.' (day 189)
[6] = patient R2, day 14, baseline 209.3, venlafaxine 75 mg alone, no rivastigmine
[7] = patient R2, day 35, baseline 209.3, venlafaxine 75 mg alone, no rivastigmine
[8] = patient R2, day 111, baseline 209.3, venlafaxine 75 mg alone, no rivastigmine

CCN(C)C(=O)Oc1cccc([C@H](C)N(C)C)c1 [Rivastigmine, rivastigmine]
Comments (side effects) [1, 5]: Vomiting
metabolism by the P450 cytochrome [2]: not metabolized by the P450 cytochrome

CCN(CC)C(C)C(=O)c1ccccc1 (stereo not shown) [Diethylpropion, diethylpropion]
Comments (side effects) [1, 5]: vomit

CCN(C)C(=O)Oc1cccc([C@H](C)N(C)C)c1 [Riva.]
Comments: adverse effects ([1]; patient M1, day 153, Tried 12 mg of Riva.): Caused vomit-; also recorded: ing, diarrhea,; also recorded: dizzy. B.P
B.P. (Comments) ([1]; patient M1, day 153, Tried 12 mg of Riva., initial B.P. 140/100): 88/64

COc1ccc(C(CN(C)C)C2(O)CCCCC2)cc1 (stereo not shown) [Venlafaxine, venlafaxine]
Δ Wt. ([1]; Patient F1, change from baseline 214.5, positive = weight lost, visit day = Days column (7-512)): 6.0
Weight ([1]; human, in vivo): 208.5
Weight [1, 6]: 207.5
Wt. Chg. [1, 6]: 1.8
Weight [1, 7]: 206.0
Wt. Chg. [1, 7]: 3.3
Weight [1, 8]: 213.3
Wt. Chg. [1, 8]: −4.0
patients with a mild increase in blood pressure [3]: 15%
absorption, influence of food [4]: not influenced by the presence of food

CN(C)C(=N)N=C(N)N [Metformin]
Comments (side effects) ([1]; Patient B1, comment wraps over rows: 'Sweating and uncomfortable stomach in a.m.' (day 59), 'Metformin causes diarrhea'): diarrhea

Reference: patent publication US20050143350A1, “Combination drug therapy to treat obesity” (priority 2003, published 2005)
